Assay results as given in ChEMBL document CHEMBL5614414, “Discovery of novel arylpyridine derivatives for motile ciliogenesis” (Eur J Med Chem, 2024).
One block for each compound: values may come before it. The source made the active and inactive calls. The rule behind the calls is not given here.

What was measured:
Danio rerio [1] = species on record: Danio rerio; experiment: Ex vivo activation of Foxj1-mediated motile ciliogenesis pathway in Tg(foxj1a:eGFP)hsc16 zebrafish TL embryo assessed as EGFP expression in spinal ependymal cells at 5 uM incubated for 24 hrs by fluorescent stereomicroscope analysis; type: functional, cell-based
[2] = Cytotoxicity against African green monkey Vero cells; type: toxicity, cell-based, Chlorocebus sabaeus
Cytochrome P450 2D6 = Cytochrome P450 2D6 (Homo sapiens, UniProt P10635); experiment: Inhibition of human CYP2D6 using quinidine as […] relative to control; type: ADME
Cytochrome P450 2D6, sequence (P10635 whole entry): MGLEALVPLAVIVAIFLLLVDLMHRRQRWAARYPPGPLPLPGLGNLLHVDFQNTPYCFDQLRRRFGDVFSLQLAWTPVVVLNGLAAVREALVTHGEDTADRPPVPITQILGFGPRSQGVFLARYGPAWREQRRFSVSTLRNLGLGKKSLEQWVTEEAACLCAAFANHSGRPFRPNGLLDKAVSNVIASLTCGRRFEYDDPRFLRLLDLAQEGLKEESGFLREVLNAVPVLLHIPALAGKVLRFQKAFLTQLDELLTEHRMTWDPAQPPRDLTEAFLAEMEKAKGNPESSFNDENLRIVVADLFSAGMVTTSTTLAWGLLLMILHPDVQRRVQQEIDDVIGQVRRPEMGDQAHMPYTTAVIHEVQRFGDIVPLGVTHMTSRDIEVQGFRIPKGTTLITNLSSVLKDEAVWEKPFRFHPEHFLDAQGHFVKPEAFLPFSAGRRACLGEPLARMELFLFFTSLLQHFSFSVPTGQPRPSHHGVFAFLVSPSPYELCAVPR

[3] = Metabolic stability in mouse liver microsomes assessed as compound remaining incubated for 30 mins; type: ADME, Microsome; details: read-out: Stability
mTEC = experiment: Ex vivo activation of Foxj1-mediated motile ciliogenesis pathway in wild type C57BL/6 mTEC (mouse tracheal epithelial cells) assessed as increase in multiciliated cells at 5 uM administered for 4 days starting from airlift interface day 0 with replacement of fresh media for every two days by DAPI staining based confocal laser microscopic analysis; type: functional, cell-based; details: time 4.0 day
[4] = Cytotoxicity against CHO-K1 cells; type: toxicity, cell-based, Cricetulus griseus; details: Chinese hamster
[5] = Cytotoxicity against mouse NIH3T3 cells; type: toxicity, cell-based
[6] = AUCt in male mouse at 5 mg/kg, po; type: ADME, organism-based; details: in vivo
[7] = Volume of distribution at steady state in male mouse at 1 mg/kg, iv; type: ADME, organism-based; details: in vivo, read-out: Vdss
[8] = AUCinfinity in male mouse at 5 mg/kg, po; type: ADME, organism-based; details: in vivo
Cytochrome P450 2C19 = Cytochrome P450 2C19 (Homo sapiens, UniProt P33261); experiment: Inhibition of human CYP2C19 using amitriptyline as substrate relative to control; type: ADME
Cytochrome P450 2C19, sequence (P33261 whole entry): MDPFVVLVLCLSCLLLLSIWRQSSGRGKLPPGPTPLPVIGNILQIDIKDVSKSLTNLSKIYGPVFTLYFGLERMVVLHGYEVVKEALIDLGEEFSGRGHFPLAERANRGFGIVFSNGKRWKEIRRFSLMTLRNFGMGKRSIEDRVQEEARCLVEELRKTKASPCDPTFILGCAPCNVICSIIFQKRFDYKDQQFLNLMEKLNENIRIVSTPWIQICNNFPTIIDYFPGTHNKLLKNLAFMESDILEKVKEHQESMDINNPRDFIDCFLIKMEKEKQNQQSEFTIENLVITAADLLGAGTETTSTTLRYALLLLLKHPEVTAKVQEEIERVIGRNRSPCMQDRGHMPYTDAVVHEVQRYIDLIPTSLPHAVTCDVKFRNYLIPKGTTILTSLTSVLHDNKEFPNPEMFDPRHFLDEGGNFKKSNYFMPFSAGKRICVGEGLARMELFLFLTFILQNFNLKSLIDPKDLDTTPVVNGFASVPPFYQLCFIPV

hERG = hERG (Homo sapiens, UniProt Q12809); experiment: Inhibition of hERG at 10 uM relative to control; type: toxicity
hERG, sequence (Q12809 whole entry): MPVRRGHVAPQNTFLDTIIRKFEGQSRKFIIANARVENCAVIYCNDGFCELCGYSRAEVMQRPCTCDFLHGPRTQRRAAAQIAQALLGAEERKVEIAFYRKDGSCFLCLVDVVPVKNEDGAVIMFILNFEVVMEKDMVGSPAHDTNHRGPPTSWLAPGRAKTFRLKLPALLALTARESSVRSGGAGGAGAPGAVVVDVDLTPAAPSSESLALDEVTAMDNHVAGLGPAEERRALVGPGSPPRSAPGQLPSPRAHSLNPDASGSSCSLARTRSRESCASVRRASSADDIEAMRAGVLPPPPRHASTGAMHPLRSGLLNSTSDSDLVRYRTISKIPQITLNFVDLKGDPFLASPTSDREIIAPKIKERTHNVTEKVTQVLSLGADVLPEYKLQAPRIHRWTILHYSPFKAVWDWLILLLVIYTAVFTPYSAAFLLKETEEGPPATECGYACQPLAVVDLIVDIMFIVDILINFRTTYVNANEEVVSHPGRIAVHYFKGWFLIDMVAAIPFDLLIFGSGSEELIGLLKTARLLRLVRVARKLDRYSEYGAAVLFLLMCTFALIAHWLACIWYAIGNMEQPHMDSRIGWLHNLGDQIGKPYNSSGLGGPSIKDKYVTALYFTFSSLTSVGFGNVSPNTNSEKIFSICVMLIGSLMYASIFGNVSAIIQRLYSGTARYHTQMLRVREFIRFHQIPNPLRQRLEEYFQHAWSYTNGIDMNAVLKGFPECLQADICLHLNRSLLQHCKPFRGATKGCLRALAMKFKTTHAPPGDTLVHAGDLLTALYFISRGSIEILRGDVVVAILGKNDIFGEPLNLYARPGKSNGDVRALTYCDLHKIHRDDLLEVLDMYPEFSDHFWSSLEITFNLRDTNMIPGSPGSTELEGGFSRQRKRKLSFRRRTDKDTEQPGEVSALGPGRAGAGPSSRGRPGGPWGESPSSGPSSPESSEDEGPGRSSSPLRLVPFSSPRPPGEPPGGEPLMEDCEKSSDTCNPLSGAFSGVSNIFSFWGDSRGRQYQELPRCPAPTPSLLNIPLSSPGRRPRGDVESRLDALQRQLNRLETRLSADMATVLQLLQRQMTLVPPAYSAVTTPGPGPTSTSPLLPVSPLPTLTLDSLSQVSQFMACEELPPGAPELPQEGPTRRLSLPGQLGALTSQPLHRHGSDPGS

Mus musculus [9] = experiment: Restoration of motile cilia in porcine pancreatic elastase-induced COPD C57BL/6 mouse model assessed as increase in motile cilia in trachea at 2 mg/kg, ip administered every other day for 2 weeks and measured 24 hrs post last dose by DAPI staining based confocal microscopic analysis; type: functional, organism-based
[10] = Cmax in male mouse at 5 mg/kg, po; type: ADME, organism-based; details: in vivo
[11] = AUCinfinity in male mouse at 1 mg/kg, iv; type: ADME, organism-based; details: in vivo
[12] = Oral bioavailability in male mouse at 5 mg/kg; type: ADME, organism-based; details: in vivo
[13] = Metabolic stability in human liver microsomes assessed as compound remaining incubated for 30 mins; type: ADME, Microsome; details: read-out: Stability
[14] = Metabolic stability in rat liver microsomes assessed as compound remaining incubated for 30 mins; type: ADME, Microsome; details: read-out: Stability
Cytochrome P450 2C9 = Cytochrome P450 2C9 (Homo sapiens, UniProt P11712); experiment: Inhibition of human CYP2C9 using sulfaphenazole as […] relative to control; type: ADME
Cytochrome P450 2C9, sequence (P11712 whole entry): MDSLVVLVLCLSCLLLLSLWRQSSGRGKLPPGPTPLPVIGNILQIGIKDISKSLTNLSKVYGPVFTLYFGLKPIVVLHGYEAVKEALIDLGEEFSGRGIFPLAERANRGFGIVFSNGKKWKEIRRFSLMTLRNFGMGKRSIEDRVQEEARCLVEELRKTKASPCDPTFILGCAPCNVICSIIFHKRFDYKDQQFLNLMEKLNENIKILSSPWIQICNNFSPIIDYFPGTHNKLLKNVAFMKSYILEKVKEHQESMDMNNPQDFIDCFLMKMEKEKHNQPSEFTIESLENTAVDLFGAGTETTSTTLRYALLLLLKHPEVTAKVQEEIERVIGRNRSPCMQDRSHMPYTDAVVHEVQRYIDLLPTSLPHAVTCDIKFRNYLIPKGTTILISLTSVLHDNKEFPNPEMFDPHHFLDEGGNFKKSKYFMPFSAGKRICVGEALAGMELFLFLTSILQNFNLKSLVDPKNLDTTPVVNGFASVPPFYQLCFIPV

[15] = Half life in male mouse at 5 mg/kg, po; type: ADME, organism-based; details: in vivo
[16] = Tmax in male mouse at 5 mg/kg, po; type: ADME, organism-based; details: in vivo
[17] = Half life in male mouse at 1 mg/kg, iv; type: ADME, organism-based; details: in vivo
Cytochrome P450 3A4 = Cytochrome P450 3A4 (Homo sapiens, UniProt P08684); experiment: Inhibition of human CYP3A4 using ketoconazole as […] relative to control; type: ADME
Cytochrome P450 3A4, sequence (P08684 whole entry): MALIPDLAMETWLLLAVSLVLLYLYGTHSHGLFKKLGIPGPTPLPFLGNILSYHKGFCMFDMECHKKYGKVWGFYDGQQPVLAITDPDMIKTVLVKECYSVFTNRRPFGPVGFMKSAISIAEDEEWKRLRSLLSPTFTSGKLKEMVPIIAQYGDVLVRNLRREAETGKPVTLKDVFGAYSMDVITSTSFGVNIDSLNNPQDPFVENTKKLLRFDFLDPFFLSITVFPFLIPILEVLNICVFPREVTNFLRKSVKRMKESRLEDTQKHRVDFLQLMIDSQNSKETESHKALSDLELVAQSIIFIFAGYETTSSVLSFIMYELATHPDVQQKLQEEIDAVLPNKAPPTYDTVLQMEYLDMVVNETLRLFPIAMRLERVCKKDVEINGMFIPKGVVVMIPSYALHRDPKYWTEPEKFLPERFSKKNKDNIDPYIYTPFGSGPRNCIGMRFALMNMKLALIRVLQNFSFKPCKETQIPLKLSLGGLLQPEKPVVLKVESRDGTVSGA

Danio rerio [18] = species on record: Danio rerio; experiment: Ex vivo activation of Foxj1-mediated motile ciliogenesis pathway in Tg(foxj1a:eGFP)hsc16 zebrafish TL embryo assessed as EGFP expression in spinal ependymal cells at 2.5 uM incubated for 24 hrs by fluorescent stereomicroscope analysis; type: functional, cell-based
Cytochrome P450 1A2 = target: T1, Cytochrome P450 1A2 (Homo sapiens, UniProt P05177); experiment: Inhibition of human CYP1A2 using alpha-naphthoflavone as […] relative to control; type: ADME
T1 sequence (P05177 whole entry): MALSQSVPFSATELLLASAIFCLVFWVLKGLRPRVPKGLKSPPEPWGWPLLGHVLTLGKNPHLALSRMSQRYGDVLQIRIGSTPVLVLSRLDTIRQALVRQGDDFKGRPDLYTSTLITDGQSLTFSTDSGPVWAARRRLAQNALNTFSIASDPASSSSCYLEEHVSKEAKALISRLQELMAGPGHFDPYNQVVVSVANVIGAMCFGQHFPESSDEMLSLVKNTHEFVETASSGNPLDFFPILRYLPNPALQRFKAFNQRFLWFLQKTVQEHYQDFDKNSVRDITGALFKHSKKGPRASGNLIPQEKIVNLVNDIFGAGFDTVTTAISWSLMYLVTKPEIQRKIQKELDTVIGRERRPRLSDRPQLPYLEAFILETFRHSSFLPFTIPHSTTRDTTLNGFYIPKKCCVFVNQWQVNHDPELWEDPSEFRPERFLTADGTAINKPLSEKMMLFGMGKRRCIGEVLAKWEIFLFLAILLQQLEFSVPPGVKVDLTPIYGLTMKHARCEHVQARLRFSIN

[19] = Cytotoxicity against human HFL1 cells; type: toxicity, cell-based
[20] = Cytotoxicity against mouse L929 cells; type: toxicity, cell-based
Mus musculus [21] = experiment: Restoration of motile cilia in porcine pancreatic elastase-induced COPD C57BL/6 mouse model assessed as decrease in airway damage in trachea at 2 mg/kg, ip administered every other day for 2 weeks and measured 24 hrs post last dose by DAPI staining based confocal microscopic analysis; type: functional, organism-based
[22] = AUCt in male mouse at 1 mg/kg, iv; type: ADME, organism-based; details: in vivo
[23] = Clearance in male mouse at 1 mg/kg, iv; type: ADME, organism-based; details: in vivo

SMILES: CC(C)(C)Nc1ncc(-c2cn[nH]c2)cc1-c1nc2ccccc2o1
Activity (Danio rerio [1]): Active

SMILES: Nc1cccc(-c2cnc(N)c(-c3nc4ccccc4o3)c2)c1
Activity (Danio rerio [1]): inactive

SMILES: Nc1cccc(-c2cnc(N3CCOCC3)c(-c3nc4ccccc4o3)c2)c1
Activity (Danio rerio [1]): Active

SMILES: CC(C)(C)Nc1ncc(-c2cccnc2)cc1-c1nc2ccccc2o1
Activity (Danio rerio [1]): Active

SMILES: CCCCNc1ncc(-c2cccc(N)c2)cc1-c1nc2ccccc2o1
Activity (Danio rerio [1]): Active

SMILES: CC(C)(C)Nc1ncc(-c2ccccc2)cc1-c1nc2ccccc2o1
Activity (Danio rerio [1]): Active

SMILES: CC(C)(C)Nc1ncc(-c2cnn(C(C)(C)CC(=O)O)c2)cc1-c1nc2ccccc2[nH]1
Activity (Danio rerio [1]): Active

inhibition (INH) (Cytochrome P450 2D6): < 1% | remaining at 0.5 h [3]: > 99.9% | AUC(0-t) [6]: 53100 ng·h/mL | Vd [7]: 0.4 L/kg | AUC(0-inf) [8]: 62900 ng·h/mL | inhibition (INH) (Cytochrome P450 2C19): 17.4% | Cmax [10]: 5160 ng/mL | AUC(0-inf) [11]: 12600 ng·h/mL | bioavailability [12]: 85% | remaining at 0.5 h [13]: > 99.9% | remaining at 0.5 h [14]: > 99.9% | inhibition (INH) (Cytochrome P450 2C9): 31.9% | half-life [15]: 3.55 h | Tmax [16]: 3.67 h | half-life [17]: 3.51 h | inhibition (INH) (Cytochrome P450 3A4): < 1% | inhibition (INH) (Cytochrome P450 1A2): 1.17% | AUC(0-t) [22]: 12500 ng·h/mL | clearance [23]: 1.33 mL/min/kg
SMILES: CC(C)(C)Nc1ncc(-c2cnn(C(C)(C)CC(=O)O)c2)cc1-c1nc2ccccc2o1
IC50 [2]: > 100 µM | Activity (mTEC): Active | IC50 [4]: > 100 µM | IC50 [5]: > 100 µM | inhibition at 10 µM (hERG): < 1% | Activity (Mus musculus [9]): Active | Activity (Danio rerio [1]): Active | Activity (Danio rerio [18]): Active | IC50 [19]: > 100 µM | IC50 [20]: > 100 µM | Activity (Mus musculus [21]): Active

SMILES: CN1CCN(c2ncc(-c3cccc(N)c3)cc2-c2nc3ccccc3o2)CC1
Activity (Danio rerio [1]): Active

SMILES: CC(C)(C)Nc1ncc(-c2ccccn2)cc1-c1nc2ccccc2o1
Activity (Danio rerio [1]): Active

SMILES: CNc1ncc(-c2cccc(N)c2)cc1-c1nc2ccccc2o1
Activity (Danio rerio [1]): Active

SMILES: CC(C)(C)Nc1ncc(-c2ccsc2)cc1-c1nc2ccccc2o1
Activity (Danio rerio [1]): Active

SMILES: Nc1cccc(-c2cnc(N3CCCCC3)c(-c3nc4ccccc4o3)c2)c1
Activity (Danio rerio [1]): Active

SMILES: CC(C)(C)Nc1ncc(-c2cccc(N)c2)cc1-c1nc2ccccc2o1
Activity (Danio rerio [1]): Active

SMILES: CC(C)(C)Nc1ncc(-c2cnn(CCC(=O)O)c2)cc1-c1nc2ccccc2o1
Activity (Danio rerio [18]): Active

SMILES: CC(CC(=O)O)n1cc(-c2cnc(NC(C)(C)C)c(-c3nc4ccccc4o3)c2)cn1 (configuration not stated)
Activity (Danio rerio [18]): Active

SMILES: Nc1cccc(-c2cnc(N3CCNCC3)c(-c3nc4ccccc4o3)c2)c1
Activity (Danio rerio [1]): Active

SMILES: CC(C)(C)Nc1ncc(-c2ccoc2)cc1-c1nc2ccccc2o1
Activity (Danio rerio [1]): Active
